Data on 19 molecules can be found in patent US20260297042A1, “BIARYLAMIDE DERIVATIVES AND THEIR USE AS PKMYT1 INHIBITORS” (CANCER RESEARCH TECHNOLOGY LIMITED, priority 2023, published 2026).

Structures are written as SMILES. Some results are limits rather than exact numbers.

The target in one assay is T1, Human PKMYT1 (Homo sapiens, UniProt Q99640).
T1 construct: Human PKMYT1 75-362 was cloned as a TEV cleavable 6xHis fusion; 6xHis (TEV cleavable) (cleaved yes); made in house; host or cells: bacterial cells
T1 sequence (Q99640 75-362): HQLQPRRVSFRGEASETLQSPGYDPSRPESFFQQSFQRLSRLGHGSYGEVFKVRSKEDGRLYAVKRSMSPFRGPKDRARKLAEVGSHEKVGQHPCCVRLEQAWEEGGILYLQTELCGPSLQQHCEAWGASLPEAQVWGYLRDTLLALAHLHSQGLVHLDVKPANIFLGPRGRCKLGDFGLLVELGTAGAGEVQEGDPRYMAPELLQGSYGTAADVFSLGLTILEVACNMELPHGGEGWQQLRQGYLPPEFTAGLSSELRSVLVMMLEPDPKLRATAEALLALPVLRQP
Description: PKMYT1 biochemical ADP-Glo enzymatic assay. The conditions noted are these: ADP-Glo. As to the method:
Human PKMYT1 75-362 was cloned as a TEV cleavable 6xHis fusion in bacterial cells. After purification on a Ni++HiTrap Chelating HP column, the His-tag was cleaved using TEV protease. Cleaved PKMYT1 was further purified on a Superdex 200 16/600 sizing column. The fractions containing PKMYT1 were pooled and concentrated using an ultrafiltration centrifugal protein concentrator. The purified protein was aliquoted, flash frozen in liquid nitrogen, and stored at −80° C.
PKMYT1 biochemical assay: Inhibition of PKMYT1 was assessed using the ADP-Glo™ Max Detection System from Promega. This assay detects the production of ADP from ATP by PKMYT1 via a two-step process ultimately involving the conversion of ADP to ATP with the latter converted to light in a coupled reaction with luciferase/luciferin. Inhibition of PKMYT1 by small molecule inhibitors results in a retardation of luminescence above background. The intrinsic ATPase activity of PKMYT1 was assessed according to the following protocol. Compounds were dosed into Corning white low volume 384 well assay plates using an Echo acoustic dispenser to generate 10-point curves spanning a 3-fold dilution series. DMSO (no inhibitor) control wells were prepared to benchmark the maximum and minimum signals in the presence and absence of PKMYT1, respectively. The PKMYT1 kinase domain was purified in-house, as described above, and added to the wells at a final concentration of 15 nM in a buffer of 50 mM HEPES (pH 7.5), 10 mM MgCl2, 1 mM EGTA, 0.01% Brij-35, 1% DMSO. 500 µM ATP was added to start the reaction with the final assay volume being 4 μl. The plate was then incubated for 60 minutes at 26° C. before the addition of 4 μl of ADP-Glo Reagent to stop the reaction and deplete the unconsumed ATP. Following a further 60 minute incubation the assay signal was developed by the addition of 8 μl ADP-Glo Max Detection Reagent. After 60 minutes the luminescence signal was read on a PHERAStar FS microplate reader (BMG Labtech).
(§1) Data analysis: Data was captured and analysed within the Dotmatics Studies software module where dose response curves were generated and IC50 values determined. Acceptance and verification of data followed strict in-house business rules which are summarised as follows. […] Technical and biological replicates of each compound are routinely tested and replicate IC50 values must fall within 3-fold of each other with dose response curves showing ‘goodness of fit’ r2 values >0.9. Failure to meet any of these defined criteria result in rejection of data.
A general note: In ADP-Glo the light output rises with the ADP produced.

The target in a further assay is T2, WEE1 (Homo sapiens, UniProt P30291).
T2 construct: purchased Thermo Fisher PR7373A
The experiment in a line: Selectivity versus WEE1 assay (ADP-Glo enzymatic assay). It is filed as biochemical. The conditions noted are these: for IC50: ADP-Glo; for PKMYT1 vs. WEE1 selectivity: fold difference in selectivity for PKMYT1 over WEE1. The protocol:
Selectivity versus WEE1 assay: Selectivity was established using the same format as outlined for PKMYT1. After dosing of compounds via the Echo acoustic dispenser—as described above—WEE1 (Thermo Fisher PR7373A) was added to each well at a final concentration of 15 nM in a buffer of 50 mM HEPES (pH 7.5), 10 mM MgCl2, 1 mM EGTA, 0.01% Brij-35, 1% DMSO. 30 µM ATP was added to start the reaction with the final assay volume being 4 μl. The plate was then incubated for 60 minutes at 26° C. before the addition of 4 μl of ADP-Glo Reagent. Following a further 60 minute incubation the assay signal was developed by the addition of 8 μl ADP-Glo Detection Reagent. After 60 minutes the luminescence signal was read on a PHERAStar FS microplate reader (BMG Labtech).
as §1

[1] abbreviates: 15 nM PKMYT1 kinase domain, 500 µM ATP, 60 minutes at 26° C., banded.
The mark [2] stands for this setting: 15 nM WEE1, 60 minutes at 26° C., banded.
Where [3] appears, read: banded, ">N" = at least in this band but could be higher.
Setting [4] is: PKMYT1 kinase domain 15 nM, banded values.

T2 sequence (P30291 whole entry): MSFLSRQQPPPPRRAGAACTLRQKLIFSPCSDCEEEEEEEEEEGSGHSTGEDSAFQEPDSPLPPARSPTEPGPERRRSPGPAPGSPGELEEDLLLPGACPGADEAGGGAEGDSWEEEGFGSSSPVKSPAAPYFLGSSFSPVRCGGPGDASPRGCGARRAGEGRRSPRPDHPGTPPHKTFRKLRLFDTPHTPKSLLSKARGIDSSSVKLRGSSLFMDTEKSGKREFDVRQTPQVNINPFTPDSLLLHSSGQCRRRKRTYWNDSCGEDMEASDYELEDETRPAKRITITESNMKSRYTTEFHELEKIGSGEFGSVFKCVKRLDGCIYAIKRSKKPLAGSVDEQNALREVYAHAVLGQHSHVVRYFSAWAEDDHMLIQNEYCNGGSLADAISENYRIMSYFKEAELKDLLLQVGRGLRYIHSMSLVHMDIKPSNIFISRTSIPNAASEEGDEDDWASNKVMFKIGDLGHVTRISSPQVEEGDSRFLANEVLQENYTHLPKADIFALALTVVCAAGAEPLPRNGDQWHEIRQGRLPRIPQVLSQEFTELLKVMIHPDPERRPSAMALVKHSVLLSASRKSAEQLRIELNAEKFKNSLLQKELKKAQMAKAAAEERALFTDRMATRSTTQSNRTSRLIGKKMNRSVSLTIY

Broadly, the IC50 is the concentration that inhibits the measured activity by half. High values mean weaker potency in that assay, low ones greater potency in that assay. For the molecule `CNC(=O)c1cc(Nc2ncc(C(=O)Nc3c(C)ccc(O)c3C)s2)nn1C` [BAA-119, N-(3-hydroxy-2,6-dimethyl-phenyl)-2-[[1-methyl-5-(methylcarbamoyl)pyrazol-3-yl]amino]thiazole-5-carboxamide], the IC50 against Human PKMYT1 (setting [1]) is 0.05 to 1 µM; at WEE1 (setting [2]) it was above 11 µM. Moreover, the “PKMYT1 vs. WEE1 selectivity” value on WEE1 (setting [3]) is listed as “X (100-<1000 fold)”.

With `Cc1ccc(O)c(C)c1NC(=O)c1cnc(Nc2cc(C)n(CCC(N)=O)n2)s1` [BAA-239, 2-((1-(3-amino-3-oxopropyl)-5-methyl-1H-pyrazol-3-yl)amino)-N-(3-hydroxy-2,6-dimethylphenyl)thiazole-5-carboxamide], the IC50 at Human PKMYT1 (setting [1]) fell in the range of 0.05 to 1 µM; at WEE1 (setting [2]), 1 to 11 µM. For the same molecule, the “PKMYT1 vs. WEE1 selectivity” value on WEE1 (setting [3]) is on record as “W (10-<100 fold)”.

In the case of `Cc1ccc(O)c(C)c1NC(=O)c1cnc(Nc2nn(C)c3c2CCCC3)s1` [BAA-246, N-(3-hydroxy-2,6-dimethylphenyl)-2-((1-methyl-4,5,6,7-tetrahydro-1H-indazol-3-yl)amino)thiazole-5-carboxamide], the 50% inhibitory concentration (IC50) at Human PKMYT1 (setting [1]) was 1 to 11 µM; against WEE1 (setting [2]) it was above 11 µM. For the same molecule, at WEE1 (setting [3]), the “PKMYT1 vs. WEE1 selectivity” value is listed as “W (10-<100 fold)”.

As for `Cc1ccc(O)c(C)c1NC(=O)c1cnc(Nc2ccn([C@@H]3CCN(C(=O)Cc4ccccc4F)C3)n2)s1` [BAA-095], the concentration for half-maximal inhibition (IC50) is 0.05 to 1 µM at Human PKMYT1 (setting [1]) and above 11 µM at WEE1 (setting [2]). Moreover, on WEE1 (setting [3]), the “PKMYT1 vs. WEE1 selectivity” value is on record as “>Y (1000-5000 fold)”.

For `Cc1ccc(O)c(C)c1NC(=O)c1cnc(Nc2ccc(S(=O)(=O)C(F)(F)F)cc2)s1` [BAA-285, N-(3-hydroxy-2,6-dimethylphenyl)-2-((4. ((trifluoromethyl)sulfonyl)phenyl)amino) thiazole-5-carboxamide], the results for the IC50 at Human PKMYT1 (setting [1]) and at WEE1 (setting [2]) were 1 to 11 µM and above 11 µM, respectively. Also, at WEE1 (setting [3]), the “PKMYT1 vs. WEE1 selectivity” value is listed as “W (10-<100 fold)”.

Consider `Cc1ccc(O)c(C)c1NC(=O)c1cnc(Nc2ccn([C@@H]3CCN(C(=O)CC4CCCCC4)C3)n2)s1` [BAA-097], for which the half-maximal inhibitory concentration (IC50) against Human PKMYT1 (setting [1]) is 0.05 to 1 µM; against WEE1 (setting [2]), above 11 µM. For the same molecule, the “PKMYT1 vs. WEE1 selectivity” value at WEE1 (setting [3]) was “>X (100-<1000 fold)”.

As for `Cc1ccc(O)c(C)c1NC(=O)c1cnc(Nc2ccn(CC(N)=O)n2)s1` [BAA-133, 2-[[1-(2-amino-2-oxo-ethyl)pyrazol-3-yl]amino]-N-(3-hydroxy-2,6-dimethyl-phenyl) thiazole-5-carboxamide], the IC50 is below 0.05 µM on Human PKMYT1 (setting [1]) and 1 to 11 µM against WEE1 (setting [2]). In addition, the “PKMYT1 vs. WEE1 selectivity” value on WEE1 (setting [3]) is listed as “X (100-<1000 fold)”.

For `Cc1ccc(O)c(C)c1NC(=O)c1cnc(Nc2cnn(CC(=O)N3CCCC3)c2C)s1` [BAA-556, N-(3-hydroxy-2,6-dimethylphenyl)-2-((5-methyl-1-(2-oxo-2-(pyrrolidin-1-yl)ethyl)-1H-pyrazol-4-yl)amino)thiazole-5-carboxamide], the 50% inhibitory concentration (IC50) against Human PKMYT1 (setting [4]) is 0.05 to 1 µM; against WEE1 (WEE1 15 nM, banded values), above 11 µM. In addition, the “PKMYT1 vs. WEE1 selectivity” value at WEE1 (banded) was “X (100-<1000 fold)”.

As for `Cc1ccc(O)c(C)c1NC(=O)c1cnc(Nc2ncc3cc(F)ccc3n2)s1` [BAA-296, 2-((6-fluoroquinazolin-2-yl)amino)-N-(3-hydroxy-2,6-dimethylphenyl)thiazole-5-carboxamide], the IC50 was below 0.05 µM at Human PKMYT1 (setting [1]) and above 11 µM against WEE1 (setting [2]). Besides, the “PKMYT1 vs. WEE1 selectivity” value at WEE1 (setting [3]) was “Y (1000-5000 fold)”.

Turning to `Cc1ccc(O)c(C)c1NC(=O)c1cnc(Nc2cccc3cccnc23)s1` [BAA-487, N-(3-hydroxy-2,6-dimethylphenyl)-2-(quinolin-8-ylamino) thiazole-5-carboxamide], the half-maximal inhibitory concentration (IC50) on Human PKMYT1 (setting [4]) was 0.05 to 1 µM; against WEE1 (WEE1 15 nM, banded values) it was above 11 µM. For the same molecule, the “PKMYT1 vs. WEE1 selectivity” value at WEE1 (banded) is given as “X (100-<1000 fold)”.

With `Cc1ccc(O)c(C)c1NC(=O)c1cnc(Nc2ccn(CC(=O)N3CCN(CCO)CC3)n2)s1` [BAA-153], the IC50 against Human PKMYT1 (setting [1]) is below 0.05 µM; on WEE1 (setting [2]), above 11 µM. Also, the “PKMYT1 vs. WEE1 selectivity” value on WEE1 (setting [3]) is “Y (1000-5000 fold)”.

Take `O=C(Nc1c(F)ccc(O)c1Cl)c1cnc(Nc2ccn(CC(=O)N3CCCC3)n2)s1` [BAA-482, N-(2-chloro-6-fluoro-3-hydroxyphenyl)-2-((1-(2-oxo-2-(pyrrolidin-1-yl)ethyl)-1H-pyrazol-3-yl)amino) thiazole-5-carboxamide]: the IC50 is below 0.05 µM on Human PKMYT1 (setting [4]) and above 11 µM against WEE1 (WEE1 15 nM, banded values). At WEE1 (banded), the “PKMYT1 vs. WEE1 selectivity” value is “Y (1000-5000 fold)”.

On to `Cc1ccc(O)c(C)c1NC(=O)c1cnc(Nc2ccc(NC(=O)c3c(F)cc(F)cc3F)cn2)s1` [BAA-302, N-(3-hydroxy-2,6-dimethylphenyl)-2-((5-(2,4,6-trifluorobenzamido)pyridin-2-yl)amino)thiazole-5-carboxamide], for which the IC50 was 0.05 to 1 µM against Human PKMYT1 (setting [1]) and above 11 µM against WEE1 (setting [2]). The “PKMYT1 vs. WEE1 selectivity” value on WEE1 (setting [3]) is “X (100-<1000 fold)”.

`Cc1ccc(O)c(C)c1NC(=O)c1cnc(Nc2ncc(F)cc2Cl)s1` [BAA-404, 2-((3-chloro-5-fluoropyridin-2-yl)amino)-N-(3-hydroxy-2,6-dimethylphenyl)thiazole-5-carboxamide]: the half-inhibitory concentration (IC50) is below 0.05 µM against Human PKMYT1 (setting [4]) and above 11 µM on WEE1 (WEE1 15 nM, banded values). In addition, the “PKMYT1 vs. WEE1 selectivity” value at WEE1 (banded) is “Y (1000-5000 fold)”.

For the molecule `Cc1ccc(O)c(C)c1NC(=O)c1cnc(Nc2ccn([C@@H]3CCN(C)C3)n2)s1` [BAA-116, N-(3-Hydroxy-2,6-dimethyl-phenyl)-2-[[1-[(3R)-1-methylpyrrolidin-3-yl]pyrazol-3-yl]amino]thiazole-5-carboxamide], the values for the half-inhibitory concentration (IC50) against Human PKMYT1 (setting [1]) and against WEE1 (setting [2]) were 0.05 to 1 µM and 1 to 11 µM, respectively. Also, the “PKMYT1 vs. WEE1 selectivity” value at WEE1 (setting [3]) was “W (10-<100 fold)”.

Consider `Cc1cn(CC(=O)O)nc1Nc1ncc(C(=O)Nc2c(C)ccc(O)c2C)s1` [BAA-125, 2-[3-[[5-[(3-hydroxy-2,6-dimethyl-phenyl)carbamoyl]thiazol-2-yl]amino]-4-methyl-pyrazol-1-yl]acetic acid], for which the IC50 at Human PKMYT1 (setting [1]) is below 0.05 µM; on WEE1 (setting [2]), above 11 µM. Further, the “PKMYT1 vs. WEE1 selectivity” value on WEE1 (setting [3]) is on record as “Y (1000-5000 fold)”.

As to `Cc1ccc(O)c(C)c1NC(=O)c1cnc(Nc2ccn(C)n2)o1` [BAA-462, N-(3-Hydroxy-2,6-dimethylphenyl)-2-((1-methyl-1H-pyrazol-3-yl)amino) oxazole-5-carboxamide], the IC50 was 0.05 to 1 µM on Human PKMYT1 (setting [4]) and above 11 µM at WEE1 (WEE1 15 nM, banded values). Moreover, the “PKMYT1 vs. WEE1 selectivity” value on WEE1 (banded) is “X (100-<1000 fold)”.

For `Cc1ccc(O)c(C)c1NC(=O)c1cnc(Nc2cc(C)n(CC(=O)N3CCCC3)n2)s1` [BAA-203], the values for the IC50 on Human PKMYT1 (setting [1]) and against WEE1 (setting [2]) were below 0.05 µM and above 11 µM, respectively. Further, the “PKMYT1 vs. WEE1 selectivity” value at WEE1 (setting [3]) is “Y (1000-5000 fold)”.

For the molecule `CCC(C(=O)N1CCN(C)CC1)n1ccc(Nc2ncc(C(=O)Nc3c(C)ccc(O)c3C)s2)n1` (stereo not drawn) [BAA-533, N-(3-hydroxy-2,6-dimethylphenyl)-2-((1-(1-(4-methylpiperazin-1-yl)-1-oxobutan-2-yl)-1H-pyrazol-3-yl)amino)thiazole-5-carboxamide], the IC50 was below 0.05 µM against Human PKMYT1 (setting [4]) and above 11 µM against WEE1 (WEE1 15 nM, banded values). Besides, on WEE1 (banded), the “PKMYT1 vs. WEE1 selectivity” value is “Y (1000-5000 fold)”.
